{"source": "paper PMC5814735", "about": "“Lithium‐Catalyzed Thiol Alkylation with Tertiary and Secondary Alcohols: Synthesis of 3‐Sulfanyl‐Oxetanes as Bioisosteres” (Chemistry (Weinheim an Der Bergstrasse, Germany), 2017)", "key": {"[1]": {"test": "eLogD, distribution coefficient (LogD) measured by HPLC", "format": "physicochemical", "description": "(§1) In the context of drug discovery, the distribution coefficient of a compound strongly affects how effectively the drug can reach its intended target, as well as efficacy and pharmacokinetic properties. […] To understand the effect of oxetane sulfides on this key parameter, LogD was measured for compounds 21, 2 d, and 17 d. Replacing the thioester functionality with the oxetane sulfide had the positive effect of lowering the LogD by approximately 1 Log unit (Figure 2).\n(§2) Figure 2 Comparison of physicochemical parameters. eLogD=distribution coefficient (LogD) measured by HPLC. HLM=Clearance in liver microsomes; RRCK=Cell membrane permeability. TEXT PRINTED IN THE PICTURE: 21: eLogD 4.7 | 2d: eLogD 3.8 | 17d: eLogD 2.1 | 20: HLM: 7.0 μL/min/mg; RRCK: 0.1 10^-6 cm/s | 22: HLM: 7.0 μL/min/mg; RRCK: 1.3 10^-6 cm/s DOUBTS OF THE COPYIST ABOUT THIS PICTURE: 2d, eLogD: 3.8 or 3.6 (small print) / 22, RRCK: 1.3 or 1.5 or 1.8 (small print) / 20 and 22, RRCK: exponent -6 is printed very small and could be -5 or -8"}, "[2]": {"test": "HLM, clearance in liver microsomes", "format": "in vitro ADME, human", "settings": "for clearance profile by human liver microsomes, comparison: 20 compared with 22, in words; for microsomal CLint: human, human liver microsomes", "description": "as §1, §2"}, "[3]": {"test": "RRCK cell membrane permeability", "format": "in vitro ADME", "settings": "dog, MDCK", "description": "as §1, §2"}, "RRCK": {"system": "RRCK", "test": "RRCK cell membrane permeability", "format": "in vitro ADME", "settings": "20 compared with methane analogue 22, in words", "description": "as §1, §2"}}}
{"smiles": "COc1ccc(SC2(c3ccc(OC)cc3)COC2)cc1", "note": "[2d]", "values": [{"measurement": "chromatographic logD", "setting": "[1]", "result": 3.8}, {"measurement": "melting point", "result": "113 to 116", "unit": "°C"}]}
{"smiles": "c1ccc(SC2(c3ccccc3)CCC2)cc1", "note": "[13c]", "values": [{"measurement": "melting point", "result": "46 to 48", "unit": "°C"}]}
{"smiles": "COc1ccc(C2(S(=O)(=O)c3ccc(OC)cc3)COC2)cc1", "note": "[17d]", "values": [{"measurement": "chromatographic logD", "setting": "[1]", "result": 2.1}, {"measurement": "melting point", "result": "158 to 160", "unit": "°C"}]}
{"smiles": "COc1ccc(C2(SCC(N)C(=O)O)COC2)cc1", "note": "(stereo not shown) [compound 20]", "values": [{"measurement": "clearance profile by human liver microsomes, comparison", "setting": "[2]", "result": "determined to be the same"}, {"measurement": "microsomal CLint", "setting": "[2]", "result": 7, "unit": "µL/min/mg"}, {"measurement": "Papp", "setting": "[3]", "result": 0.1, "unit": "×10⁻⁶ cm/s"}, {"measurement": "cell permeability compared with analogue", "setting": "RRCK", "result": "slightly lower cell permeability than the corresponding methane analogue 22"}]}
{"smiles": "COc1ccc(SC(=O)c2ccc(OC)cc2)cc1", "note": "[compound 21]", "values": [{"measurement": "chromatographic logD", "setting": "[1]", "result": 4.7}]}
{"smiles": "COc1ccc(CSCC(N)C(=O)O)cc1", "note": "(stereo not shown) [compound 22]", "values": [{"measurement": "clearance profile by human liver microsomes, comparison", "setting": "[2]", "result": "determined to be the same"}, {"measurement": "microsomal CLint", "setting": "[2]", "result": 7, "unit": "µL/min/mg"}, {"measurement": "Papp", "setting": "[3]", "result": 1.3, "unit": "×10⁻⁶ cm/s"}]}
